Test [1] relates to autophagy cells (mouse B16-F10 cells suspended for 4 hours). Put plainly: Blocking of liposomes targeting to autophagy cells (flow cytometry). The class given is cell-based. The settings on record: M6PR+P-selectin, M6PR+PSGL-1 groups. Here is the method:
(§1) The mouse B16-F10 cells were suspended for 4 hours to induce autophagy and apoptosis. The autophagy and apoptosis cell were labeled with green fluorescent dyes (GFDs), using Cyto-ID autophagy detection kit (Enzo Life Sciences) (see FIG. 1 and FIG. 3) and CaspGLOW™ Red Active Caspase-3 Staining Kit (BioVision) (see FIG. 2 and FIG. 4) kits, respectively. The autophagy and apoptosis cell containing populations were engaged with various protein conjugated liposomes, which were labeled with fluorescent dye calcein-red (CR). The percentage of B16-F10-liposome engaged populations (GFD and CR double positive populations) were determined using flow cytometry. The levels of liposomes and fluorescent beads engaged with none conjugated cells (the “unconjugated” groups) were normalized to 100% (see FIG. 1 and FIG. 2).
(§2) The mouse B16-F10 cells were suspended for 4 hours and then treated with blocking antibody or soluble M6PR recombinant protein plus additional M6PR+P-selectin-conjugated liposomes. The autophagy and apoptosis cell were labeled with green fluorescent dyes (GFDs), using Cyto-ID autophagy detection kit (Enzo Life Sciences) and CaspGLOW™ Red Active Caspase-3 Staining Kit (BioVision) kits, respectively. […] The percentage of B16-F10-liposome engaged populations (GFD and CR double positive populations) were determined using flow cytometry. […]

The subject of test [2] is apoptotic cells (mouse B16-F10 cells suspended for 4 hours). The test is described as follows: Blocking of liposomes targeting to apoptotic cells (flow cytometry). The class given is cell-based. To be noted: M6PR+P-selectin, M6PR+PSGL-1 groups. Here is the method: as §1, §2
Background: A flow cytometer gives signals particle by particle.

Data on one substance can be found in US10584154B2, “Vesicles comprising lectins expressed on the surface and methods of use thereof to deliver an agent to autophagic and apoptotic cells” (TZU CHI UNIVERSITY, priority 2017, dated 2020).

On to sialyl-lewis x oligosaccharide, for which, in test [1], the “antidote: blocking of P-selectin, E-selectin and PSGL-1-conjugated liposomes targeting to autophagy cells” value was “able to serve as the antidotes”. In addition, the “antidote: blocking of P-selectin, E-selectin and PSGL-1-conjugated liposomes targeting to apoptotic cells” value in test [2] is on record as “able to serve as the antidotes”.
